Experimental findings from patent publication US7273856B2, “Linear basic compounds having NK-2 antagonist activity and formulations thereof” (Menarini Ricerche S.P.A., priority 2001, dated 2007) are described below.

This test concerns the target T1, human NK-2 receptor (Homo sapiens, UniProt P21452).
T1 construct: expressed in transfected cells; host or cells: CHO (Chinese hamster ovary) cells, membranes
T1 sequence (P21452 1-398): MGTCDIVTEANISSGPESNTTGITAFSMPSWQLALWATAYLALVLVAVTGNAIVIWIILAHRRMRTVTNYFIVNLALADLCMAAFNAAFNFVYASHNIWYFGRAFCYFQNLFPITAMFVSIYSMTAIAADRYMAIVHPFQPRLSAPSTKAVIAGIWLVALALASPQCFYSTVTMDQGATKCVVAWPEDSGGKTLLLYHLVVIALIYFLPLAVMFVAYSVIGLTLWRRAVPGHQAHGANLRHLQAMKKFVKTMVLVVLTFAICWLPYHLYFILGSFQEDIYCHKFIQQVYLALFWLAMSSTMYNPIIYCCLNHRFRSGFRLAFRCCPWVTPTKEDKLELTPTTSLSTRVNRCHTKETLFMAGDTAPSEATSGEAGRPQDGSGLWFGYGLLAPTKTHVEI
The experiment in a line: binding test, affinity for the human NK-2 receptor, competition with [125I]NKA on transfected CHO cell membranes. The following applies: CHO cell membranes transfected with NK-2 receptor of human ileum; [125I]NKA 100 pM; 30 min, 20° C. The procedure:
The evaluation of the antagonist activity on NK-2 receptors has been assessed by binding and functional tests according to that already described in literature in relation to NK-2 antagonists.
The test substances have been tested within a concentration range from 0.01 nM to 10 nM. At the end of the incubation time (30 min, 20° C.) the samples have been filtered and radioactivity has been determined using a gamma-counter.

As a reminder, the pKi is the negative decadic logarithm of the Ki, by convention in mol/L.

pKi: −log10 of the molar value. Several values for one entry are separate records, joined by “and”; a condition that tells them apart may be missing. Equal values may be shown once. Where a name gives a salt, the structure may show the parent alone.

As to `O=C(NC1(C(=O)N[C@H](Cc2ccccc2)C(=O)NCCN2CCN(CC3CCOCC3)CC2)CCCC1)c1cc2ccccc2s1` [Example 101, Benzo[b]thiophene-2-carboxylic acid [1-(2-phenyl-1(R)-{2-[4-(tetrahydro-pyran-4-ylmethyl)-piperazin-1-yl]-ethylcarbamoyl}-ethylcarbamoyl)-cyclopentyl)-amide TFA salt], the pKi is 8.90.
In the case of `O=C(NC1(C(=O)N[C@H](Cc2ccccc2)C(=O)NCCCN2CCOCC2)CCCC1)c1cc2cc(Cl)ccc2o1` [Example 102, 5-Chloro-benzofuran-2-carboxylic acid {1-[1R-(3-morpholin-4-yl-propylcarbamoyl)-2-phenyl-ethylcarbamoyl]-cyclopentyl}-amide] it was 9.30; in that of `O=C(NC1(C(=O)N[C@H](Cc2ccccc2)C(=O)NCCCN2CCOCC2)CCCC1)c1cc2cc(Br)ccc2o1` [Example 104, 5-Bromo-benzofuran-2-carboxylic acid {1-[1R-(3-morpholin-4-yl-propylcarbamoyl)2-phenyl-ethylcarbamoyl]-cyclopentyl}-amide], 9.30 and 9.50; in that of `O=C(NC1(C(=O)N[C@H](Cc2ccccc2)C(=O)NCCCN2CCOCC2)CCCC1)c1cc2ccc(Br)cc2s1` [Example 108, 6-Bromo-benzo[b]thiophene-2-carboxylic acid {1-[1R-(3-morpholin-4-yl-propylcarbamoyl)-2-phenyl-ethylcarbamoyl]-cyclopentyl}-amide], 10.10.
The figure for `O=C(NC1(C(=O)N[C@H](Cc2ccccc2)C(=O)NCCCN2CCOCC2)CCCCC1)c1cc2ccc(Br)cc2s1` [Example 109, 6-Bromo-benzo[b]thiophene-2-carboxylic acid {1-[1R-(3-morpholin-4-yl-propylcarbamoyl)-2-phenyl-ethylcarbamoyl]-cyclohexyl}-amide] is 10.00; for `Cn1c(C(=O)NC2(C(=O)N[C@H](Cc3ccccc3)C(=O)NCCCN3CCOCC3)CCCC2)cc2ccc(Cl)cc21` [Example 111, 6-Chloro-1-methyl-1H-indole-2-carboxylic acid {1-[1R-(3-morpholin-4-yl-propylcarbamoyl)-2-phenyl-ethylcarbamoyl]-cyclopentyl}-amide] it is 9.70; for `Cc1ccc2c(c1)cc(C(=O)NC1(C(=O)N[C@H](Cc3ccccc3)C(=O)NCCCN3CCOCC3)CCCC1)n2C` [Example 114, 1,5-Dimethyl-1H-indole-2-carboxylic acid {1-[1R-(3-morpholinyl-propylcarbamoyl)-2-phenyl-ethylcarbamoyl]-cyclopentyl}-amide] it is 8.80.
In turn, `Nc1ccc2cc(C(=O)NC3(C(=O)N[C@H](Cc4ccccc4)C(=O)NCCCN4CCOCC4)CCCC3)sc2c1` [Example 115, 6-Amino-benzo[b]thiophene-2-carboxylic acid {1-[1R-(3-morpholin-4-yl-propylcarbamoyl)-2-phenyl-ethylcarbamoyl]-cyclopentyl]-amide] showed a pKi of 8.50.
The molecule `O=C(NC1(C(=O)N[C@H](Cc2ccccc2)C(=O)NCCCN2CCOCC2)CCCC1)c1cc2ccc(Cl)c(Cl)c2s1` [Example 116, 6,7-Dichloro-benzo[b]thiophene-2-carboxylic acid {1-[1R-(3-morpholin-4-yl-propylcarbamoyl)-2-phenyl-ethylcarbamoyl]-cyclopentyl}-amide] showed a pKi of 9.50. Against the preceding molecule, the pKi is 1.00 log units higher.
In the case of `O=C(NC1(C(=O)N[C@H](Cc2ccccc2)C(=O)NCC2CCN(CC3CCOCC3)CC2)CCCC1)c1ccc2cc(I)ccc2c1` [Example 117, 6-Iodo-naphthalene-2-carboxylic acid (1-(2-phenyl-1R-{[1-(tetrahydro-pyran-4-ylmethyl)-piperidin-4-ylmethyl]-carbamoyl}-ethylcarbamoyl)-cyclopentyl]-amide] it was 10.30.
The figure for `COc1ccc2cc(C(=O)NC3(C(=O)N[C@H](Cc4ccccc4)C(=O)NCC4CCN(CC5CCOCC5)CC4)CCCC3)ccc2c1` [Example 118, 6-Methoxy-naphthalene-2-carboxylic acid [1-(2-phenyl-1R-{[1-(tetrahydro-pyran-4-ylmethyl)-piperidin-4-ylmethyl]-carbamoyl}-ethylcarbamoyl)-cyclopentyl]-amide] is 9.50.
The figure for `O=C(NC1(C(=O)N[C@H](Cc2ccccc2)C(=O)NCC2CCN(CC3CCOCC3)CC2)CCCC1)c1cc2ccc(Br)cc2o1` [Example 119, 6-Bromo-benzofuran-2-carboxylic acid [1-(2-phenyl-1R-{[1-(tetrahydro-pyran-4-ylmethyl)-piperidin-4-ylmethyl]-carbamoyl}-ethylcarbamoyl)cyclopentyl]-amide] is 9.60.
With `O=C(NC1(C(=O)N[C@H](Cc2ccccc2)C(=O)NCC2CCN(CC3CCOCC3)CC2)CCCC1)c1cc2ccc(Cl)cc2o1` [Example 120], the negative-log Ki (pKi) is 9.50.
Molecule `O=C(NC1(C(=O)N[C@H](Cc2ccccc2)C(=O)NCC2CCN(CC3CCOCC3)CC2)CCCC1)c1cc2cc(F)ccc2o1` [Example 121, 5-Fluoro-benzofuran-2-carboxylic acid [1-(2-phenyl-1R-{[1-(tetrahydro-pyran-4-ylmethyl)-piperidin-4-ylmethyl]-carbamoyl}-ethylcarbamoyl)-cyclopentyl]-amide] had a negative-log Ki (pKi) of 9.30.
In the case of `O=C(NC1(C(=O)N[C@H](Cc2ccccc2)C(=O)NCC2CCN(CC3CCOCC3)CC2)CCCC1)c1cc2cc(Cl)ccc2o1` [Example 122, 5-Chloro-benzofuran-2-carboxylic acid [1-(2-phenyl-1R-{[1-(tetrahydro-pyran-4 ylmethyl)-piperidin-4-ylmethyl]-carbamoyl}-ethylcarbamoyl)cyclopentyl]-amide] it was 10.00; in that of `O=C(NC1(C(=O)N[C@H](Cc2ccccc2)C(=O)NCC2CCN(CC3CCOCC3)CC2)CCCC1)c1cc2cc(Br)ccc2o1` [Example 123, 5-Bromo-benzofuran-2-carboxylic acid [1-(2-phenyl-1R-{[1-(tetrahydro-pyran-4-ylmethyl)-piperidin-4-ylmethyl]-carbamoyl}-ethylcarbamoyl)cyclopentyl]-amide], 10.00.
Molecule `CC(C)(C)c1cccc2cc(C(=O)NC3(C(=O)N[C@H](Cc4ccccc4)C(=O)NCC4CCN(CC5CCOCC5)CC4)CCCC3)oc12` [Example 124, 7-tert-Butyl-benzofuran-2-carboxylic acid [1-(2-phenyl-1R-{[1-(tetrahydro-pyran-4 ylmethyl)-piperidin-4-ylmethyl]-carbamoyl}-ethylcarbamoyl)-cyclopentyl]-amide] gave a pKi of 10.00.
Turning to `Cc1ccc2cc(C(=O)NC3(C(=O)N[C@H](Cc4ccccc4)C(=O)NCC4CCN(CC5CCOCC5)CC4)CCCC3)oc2c1` [Example 125, 6-Methyl-benzofuran-2-carboxylic acid [1-(2-phenyl-1R-{[1-(tetrahydro-pyran-4-ylmethyl)-piperidin-4-ylmethyl]-carbamoyl}-ethylcarbamoyl)-cyclopentyl]-amide], the pKi is 9.60. Against the preceding molecule, the pKi is 0.40 log units lower.
In turn, `Cc1ccc2oc(C(=O)NC3(C(=O)N[C@H](Cc4ccccc4)C(=O)NCC4CCN(CC5CCOCC5)CC4)CCCC3)cc2c1` [Example 126, 5-Methyl-benzofuran-2-carboxylic acid [1-(2-phenyl-1R-([1-(tetrahydro-pyran-4-ylmethyl)-piperidin-4-ylmethyl]-carbamoyl}-ethylcarbamoyl)-cyclopentyl]-amide] had a pKi of 9.80.
The figure for `O=C(NC1(C(=O)N[C@H](Cc2ccccc2)C(=O)NCC2CCN(CC3CCOCC3)CC2)CCCC1)c1cc2cc(I)ccc2o1` [Example 127, 5-Iodo-benzofuran-2-carboxylic acid [1-(2-phenyl-1R-{[1-(tetrahydro-pyran-4-ylmethyl)-piperidin-4-ylmethyl]-carbamoyl}-ethylcarbamoyl)-cyclopentyl]-amide] is 10.10; for `CC(C)(C)c1ccc2oc(C(=O)NC3(C(=O)N[C@H](Cc4ccccc4)C(=O)NCC4CCN(CC5CCOCC5)CC4)CCCC3)cc2c1` [Example 128, 5-tert-Butyl-benzofuran-2-carboxylic acid [1-(2-phenyl-1R-{[1-(tetrahydro-pyran-4-ylmethyl)-piperidin-4-ylmethyl]-carbamoyl}-ethylcarbamoyl)-cyclopentyl]-amide] it is 9.90; for `O=C(NC1(C(=O)N[C@H](Cc2ccccc2)C(=O)NCC2CCN(CC3CCOCC3)CC2)CCCC1)c1cc2ccc(I)cc2s1` [Example 129, 6-Iodo-benzo[b]thiophene-2-carboxylic acid [1-(2-phenyl-1R-{[1-(tetrahydro-pyran-4-ylmethyl)-piperidin-4-ylmethyl]-carbamoyl}-ethylcarbamoyl)-cyclopentyl]-amide] it is 10.30.
The figure for `O=C(NC1(C(=O)N[C@H](Cc2ccccc2)C(=O)NCC2CCN(CC3CCOCC3)CC2)CCCC1)c1cc2cccc(Br)c2s1` [Example 131, 7-Bromo-benzo[b]thiophene-2-carboxylic acid [1-(2-phenyl-1R-{[1-(tetrahydro-pyran-4-ylmethyl)-piperidin-4-ylmethyl]-carbamoyl}-ethylcarbamoyl)-cyclopentyl]-amide] is 10.40.
In turn, `O=C(NC1(C(=O)N[C@H](Cc2ccccc2)C(=O)NCC2CCN(CC3CCOCC3)CC2)CCCC1)c1cc2cccc(I)c2s1` [Example 132, 7-Iodo-benzo[b]thiophene-2-carboxylic acid [1-(2-phenyl-1R-{[1-(tetrahydro-pyran 4-ylmethyl)-piperidin-4-ylmethyl]-carbamoyl}-ethylcarbamoyl)-cyclopentyl]-amide] gave a pKi of 10.50. The pKi values of the last two molecules are within 0.2 log units of each other.
